In the supplement of paper PMC8671470:

Tests used:
Details in all cases: 72 h
BV-173 [1] = experiment: cell viability (% survival relative to DMSO control, bortezomib = 0%); higher = less cytotoxic
Outline: (§1)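 Percent survival is reported as the mean of duplicate wells. Cells from 10 AML and 5 CML lines were plated in 384-well plates containing compounds at 1, 10, 100, 1000 or 10000 nM and kept for 72 h at 37 °C in 5% CO2. Readout used CellTiter-Glo luminescence, scaled so that vehicle equals 100% and a 10 µM positive control equals 0%.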

NOMO-1 [2] = experiment: as above
Outline: as §1

KG-1 [3] = experiment: as above
Outline: as §1

KU-812 [4] = experiment: as above
Outline: as §1

LAMA-84 [5] = experiment: as above
Outline: as §1

HEL [6] = experiment: as above
Outline: as §1

SHI-1 [7] = experiment: as above
Outline: as §1

K-562 [8] = experiment: as above
Outline: as §1

MOLM-13 [9] = experiment: as above
Outline: as §1

KCL-22 [10] = experiment: as above
Outline: as §1

THP-1 [11] = experiment: as above
Outline: as §1

HL-60 [12] = experiment: as above
Outline: as §1

ML-2 [13] = experiment: as above
Outline: as §1

MV4-11 [14] = experiment: as above
Outline: as §1

Mono-Mac-6 [15] = experiment: as above
Outline: as §1

BV-173 [16] = test system: BV-173
Outline: (§2)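 Fifteen myeloid leukaemia lines in RPMI 1640 were treated for 72 h at 37 °C and 5% CO2 with five tenfold doses from 1 to 10,000 nM, in duplicate. ATP luminescence was normalised to vehicle and to a positive control at 10 µM, then fitted with a four-parameter log-logistic model. The IC50 came from these fits.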

NOMO-1 [17] = test system: NOMO-1
Outline: as §2

KG-1 [18] = test system: KG-1
Outline: as §2

KU-812 [19] = test system: KU-812
Outline: as §2

LAMA-84 [20] = test system: LAMA-84
Outline: as §2

HEL [21] = test system: HEL
Outline: as §2

SHI-1 [22] = test system: SHI-1
Outline: as §2

K-562 [23] = test system: K-562
Outline: as §2

MOLM-13 [24] = test system: MOLM-13
Outline: as §2

KCL-22 [25] = test system: KCL-22
Outline: as §2

THP-1 [26] = test system: THP-1
Outline: as §2

HL-60 [27] = test system: HL-60
Outline: as §2

ML-2 [28] = test system: ML-2
Outline: as §2

MV4-11 [29] = test system: MV4-11
Outline: as §2

Mono-Mac-6 [30] = test system: Mono-Mac-6
Outline: as §2

`CCCCCOC(=O)Nc1nc(=O)n([C@@H]2O[C@H](C)[C@@H](O)[C@H]2O)cc1F` [Capecitabine] was tested, and the cell viability (BV-173 [1]; 1 nM) was 100%, the cell viability (BV-173 [1]; 10 nM) was 93.8% and the cell viability (BV-173 [1]; 100 nM) was 102%. It also gave a cell viability (BV-173 [1]; 1000 nM) of 97.5%, a cell viability (BV-173 [1]; 10000 nM) of 88.3% and a cell viability (NOMO-1 [2]; 1 nM) of 99.5%. It also gave a cell viability (NOMO-1 [2]; 10 nM) of 100%, a cell viability (NOMO-1 [2]; 100 nM) of 94.9% and a cell viability (NOMO-1 [2]; 1000 nM) of 93%. It also gave a cell viability (NOMO-1 [2]; 10000 nM) of 99.9%, a cell viability (KG-1 [3]; 1 nM) of 98.1% and a cell viability (KG-1 [3]; 10 nM) of 91.1%. For the same compound, the cell viability (KG-1 [3]; 100 nM) was 103%, the cell viability (KG-1 [3]; 1000 nM) was 97.5% and the cell viability (KG-1 [3]; 10000 nM) was 86.8%. The cell viability (KU-812 [4]; 1 nM) was 90.7%, the cell viability (KU-812 [4]; 10 nM) was 93.3% and the cell viability (KU-812 [4]; 100 nM) was 104%. For the same compound, the cell viability (KU-812 [4]; 1000 nM) was 102%, the cell viability (KU-812 [4]; 10000 nM) was 89.9% and the cell viability (LAMA-84 [5]; 1 nM) was 91.9%. For the same compound, the cell viability (LAMA-84 [5]; 10 nM) was 94.5%, the cell viability (LAMA-84 [5]; 100 nM) was 87.6% and the cell viability (LAMA-84 [5]; 1000 nM) was 99%. It also gave a cell viability (LAMA-84 [5]; 10000 nM) of 99.9%, a cell viability (HEL [6]; 1 nM) of 86.1% and a cell viability (HEL [6]; 10 nM) of 87%. The cell viability (HEL [6]; 100 nM) was 106%, the cell viability (HEL [6]; 1000 nM) was 106% and the cell viability (HEL [6]; 10000 nM) was 87.6%. For the same compound, the cell viability (SHI-1 [7]; 1 nM) was 102%, the cell viability (SHI-1 [7]; 10 nM) was 99.1% and the cell viability (SHI-1 [7]; 100 nM) was 97.1%. It also gave a cell viability (SHI-1 [7]; 1000 nM) of 107%, a cell viability (SHI-1 [7]; 10000 nM) of 96.7% and a cell viability (K-562 [8]; 1 nM) of 97.4%. The cell viability (K-562 [8]; 10 nM) was 92.5%, the cell viability (K-562 [8]; 100 nM) was 82.9% and the cell viability (K-562 [8]; 1000 nM) was 99.9%. For the same compound, the cell viability (K-562 [8]; 10000 nM) was 93.3%, the cell viability (MOLM-13 [9]; 1 nM) was 87.7% and the cell viability (MOLM-13 [9]; 10 nM) was 104%. For the same compound, the cell viability (MOLM-13 [9]; 100 nM) was 121%, the cell viability (MOLM-13 [9]; 1000 nM) was 113% and the cell viability (MOLM-13 [9]; 10000 nM) was 70.8%. The cell viability (KCL-22 [10]; 1 nM) was 118%, the cell viability (KCL-22 [10]; 10 nM) was 85.4% and the cell viability (KCL-22 [10]; 100 nM) was 66.3%. The cell viability (KCL-22 [10]; 1000 nM) was 109%, the cell viability (KCL-22 [10]; 10000 nM) was 85.2% and the cell viability (THP-1 [11]; 1 nM) was 102%. For the same compound, the cell viability (THP-1 [11]; 10 nM) was 100%, the cell viability (THP-1 [11]; 100 nM) was 94.1% and the cell viability (THP-1 [11]; 1000 nM) was 105%. The cell viability (THP-1 [11]; 10000 nM) was 94.6%, the cell viability (HL-60 [12]; 1 nM) was 104% and the cell viability (HL-60 [12]; 10 nM) was 85.2%. The cell viability (HL-60 [12]; 100 nM) was 109%, the cell viability (HL-60 [12]; 1000 nM) was 101% and the cell viability (HL-60 [12]; 10000 nM) was 72%. For the same compound, the cell viability (ML-2 [13]; 1 nM) was 107%, the cell viability (ML-2 [13]; 10 nM) was 95.5% and the cell viability (ML-2 [13]; 100 nM) was 86.1%. For the same compound, the cell viability (ML-2 [13]; 1000 nM) was 94.1%, the cell viability (ML-2 [13]; 10000 nM) was 98.3% and the cell viability (MV4-11 [14]; 1 nM) was 98.2%. The cell viability (MV4-11 [14]; 10 nM) was 90.8%, the cell viability (MV4-11 [14]; 100 nM) was 110% and the cell viability (MV4-11 [14]; 1000 nM) was 103%. It also gave a cell viability (MV4-11 [14]; 10000 nM) of 89.7%, a cell viability (Mono-Mac-6 [15]; 1 nM) of 100% and a cell viability (Mono-Mac-6 [15]; 10 nM) of 90.2%. The cell viability (Mono-Mac-6 [15]; 100 nM) was 113%, the cell viability (Mono-Mac-6 [15]; 1000 nM) was 95.6% and the cell viability (Mono-Mac-6 [15]; 10000 nM) was 93.1%. For the same compound, the “IC50 (cell viability)” value (BV-173 [16]) was greater than 10 µM, the “IC50 (cell viability)” value (NOMO-1 [17]) was greater than 10 µM and the “IC50 (cell viability)” value (KG-1 [18]) was greater than 10 µM. For the same compound, the “IC50 (cell viability)” value (KU-812 [19]) was greater than 10 µM, the “IC50 (cell viability)” value (LAMA-84 [20]) was greater than 10 µM and the “IC50 (cell viability)” value (HEL [21]) was greater than 10 µM. For the same compound, the “IC50 (cell viability)” value (SHI-1 [22]) was greater than 10 µM, the “IC50 (cell viability)” value (K-562 [23]) was greater than 10 µM and the “IC50 (cell viability)” value (MOLM-13 [24]) was greater than 10 µM. For the same compound, the “IC50 (cell viability)” value (KCL-22 [25]) was greater than 10 µM, the “IC50 (cell viability)” value (THP-1 [26]) was greater than 10 µM and the “IC50 (cell viability)” value (HL-60 [27]) was greater than 10 µM. The “IC50 (cell viability)” value (ML-2 [28]) was greater than 10 µM, the “IC50 (cell viability)” value (MV4-11 [29]) was greater than 10 µM and the “IC50 (cell viability)” value (Mono-Mac-6 [30]) was greater than 10 µM.
